Experimental data from patent US11447786B2, “Systems and methods for cellular reprogramming of a plant cell” (PIONEER HI-BRED INTERNATIONAL, INC., priority 2017, dated 2022).
“Also recorded” adds a separate entry of the source.

How the values were obtained:
Type in all cases: cell-based, maize
[1] = system: ATCC40520 microspores; assay: Gene expression analysis of embryo-like structures from control and hemin-treated ATCC40520 cultures; conditions: 1 μM hemin, 8 days in vitro culture, vs control
Method: Following microspore isolation, ATCC40520 microspores (see U.S. Pat. No. 5,602,310 incorporated herein by reference in its entirety) were cultured in a petri dish in a 9% sucrose induction medium as a control or a 9% sucrose induction medium supplemented with a 1 μM final concentration of hemin (Sigma-Aldrich, catalog # H9039) at 28° C. under dark conditions. After 8 days of in vitro tissue culture, four biological replicates of proliferating embryo-like structures were sampled from each of the control and the hemin-treated ATCC40520 tissue cultures for embryogenesis induction and processed for gene expression analysis using methods known in the art (data not shown).

[2] = system: ATCC40520 microspores; assay: Microspore embryogenesis in ATCC40520 microspore culture with hemin, MCS/ELS phenotype scoring; conditions: 1 μM hemin
Method: Following microspore isolation, ATCC40520 microspores (see U.S. Pat. No. 5,602,310 incorporated herein by reference in its entirety) were cultured in a petri dish in a 9% sucrose induction medium as a control or a 9% sucrose induction medium supplemented with a 1 μM final concentration of hemin (Sigma-Aldrich, catalog # H9039) at 28° C. under dark conditions.
(§1) Following microspore isolation, ATCC40520 microspores and EH, anelite inbred, that is known to be less responsive relative to the ATCC40520 genotype, were each individually cultured in a petri dish in a 9% sucrose induction medium as a control or a 9% sucrose induction medium supplemented with a 1 μM final concentration of hemin at 28° C. under dark conditions.
(§2) Microspore phenotypes were scored for each of ATCC40520 and EH after 21 days of treatment (+/− hemin). A multicellular structure (MCS) phenotype was scored when a unicellular-derived structure resulting from randomly oriented divisions within a surrounding, intact exine wall was observed. If the surrounding exine was ruptured and a release of cells was observed, then the response was scored as a proliferative embryo-like structure (ELS).

[3] = system: inbred EH microspores; assay: Microspore embryogenesis in inbred EH microspore culture with hemin, MCS/ELS phenotype scoring; conditions: 1 μM hemin
Method: as §1, §2

[4] = system: isolated microspores; assay: Ex situ treatment of isolated microspores with GAMMA ZEIN-ZmWUS2-hexa histidine-tag protein; conditions: vs microspores cultured without the protein
Method: GAMMA ZEIN-ZmWUS2-hexa histidine-tag protein expression and purification is performed using a heterologous expression system expressing a plasmid encoding a GAMMA ZEIN-ZmWUS2-hexa histidine-tag (SEQ ID NO:46) sequence transformed into DH10Bac cells to generate baculoviruses. Baculovirus-infected SF9 insect cells are incubated for 72 hours at 27° C. The infected insect cells are harvested by centrifugation. Purification of the recombinant GAMMA ZEIN-ZmWUS2-hexa histidine-tag protein (SEQ ID NO:47) is performed as described in EXAMPLE 3.

[5] = system: isolated microspores; assay: Microspore electroporation with ZmWUS2-hexa histidine-tag protein; conditions: in combination with electroporation, vs no protein and no electroporation
Method: A Neon® Transfection System (Thermo Fisher Scientific catalog #MPK5000) and Neon® kit (Thermo Fisher Scientific catalog #MPK10025) is used per the manufacturer's instructions. The ex situ ZmWUS2-hexa histidine-tag protein treatment is prepared by mixing 12.5 μL of ZmWUS2-hexa histidine-tag protein (SEQ ID NO:2; 10 μg total, 0.8 μg/μL stock) with 12.5 μL Lipofectamin 3000 followed by 30 minutes incubation at room temperature. Sucrose is added to the resuspension buffer (buffer R) to a 0.4 M final concentration and filter sterilized. Isolated microspores are resuspended in a 2% (V/V) dimethyl sulfoxide (DMSO)/9% suscrose induction medium solution and incubated for 15 minutes at room temperatures, the microspores are pelleted, and the supernatant is removed. The microspores are washed three times with phosphate buffered saline (PBS; Gibco™ 10010023), resuspended in Electrolytic Buffer E (Thermo Fisher Scientific catalog #MPK5000) and mixed with the ZmWUS2-hexa histidine-tag protein/Lipofectamine 3000 solution followed by room temperature incubation for 10 minutes and then incubation on ice for 10 minutes. DMSO-mediated electroporation was used to increase ZmWUS2-hexa histidine-tag protein uptake into isolated microspores through multiple pulse conditions. […]

[6] = system: inbred EH microspores; assay: Ex situ treatment of isolated microspores with purified ZmWUS2-hexa histidine-tag protein
Method: WUSCHEL protein expression and purification was performed using a heterologous expression system expressing a plasmid encoding a ZmWUS2-hexa histidine-tag (SEQ ID NO:1) sequence transformed into DH10Bac cells (Thermo Fisher Scientific catalog #10361012) to generate baculoviruses. Baculovirus-infected SF9 insect cells (Thermo Fisher Scientific catalog #12552014) were incubated for 72 hours at 27° C. The infected insect cells were harvested by centrifugation. Purification of the recombinant ZmWUS2-hexa histidine-tag protein (SEQ ID NO:2) was performed using commercially available protein purification methods Following microspore isolation from inbred EH, ZmWUS2-hexa histidine-tag protein treatments were performed for each culture by combining 505 μL of a 4% sucrose induction media, 37.5 μL of molecular grade bovine serum albumin (BSA; 20 mg/ml) (Sigma-Aldrich catalog # B8667) and 7.5 μL of protease inhibitor (Sigma-Aldrich catalog # P9599) and with 250 μL of the purified recombinant ZmWUS2-hexa histidine-tag protein. After gently mixing, the solution was filter sterilized within a sterile environment using a 0.2 μm filter (Pall Corporation catalog #4612). Optionally, an isolation medium was buffered with L-glutathione reduced (Sigma-Aldrich catalog #G4251). […]

[7] = system: microspores isolated from a F1 hybrid tassel of an EHxGR genetic cross; assay: Protein transfection of microspores with ZmWUS2-hexa histidine-tag protein with or without Pro-Ject reagent
Method: Transfection reagent preparation using the cationic lipid based Pro-Ject™ transfection reagent (Thermo Fisher Scientific catalog #89850) was performed by adding 250 μL of methanol to the tube containing the dried transfection reagent, vortexing for 30 seconds at top speed, and dispensing 10 μL of Pro-ject™ plus methanol to 1.5 mL Eppendorf tubes. The transfection reagent was evaporated from the tubes within a chemical fume hood for 4 hours drying time at room temperature and the tubes were stored the tubes at −20° C. until use. Upon use, 100 μL of isolation medium containing 50 ng of the purified ZmWUS2-hexa histidine-tag protein was added to each tube and 900 μL microspore culture medium was dispensed into each transfection tube to re-hydrate the transfection reagent and encapsulate the protein. The 1 mL volume of this solution was combined with a 1 mL volume of microspores isolated from a F1 hybrid tassel of an EHxGR genetic cross. The microspores were suspended in isolation medium and each 2 mL volume was dispensed into a well of a 24 well microtiter plate (Lab Safety Supply catalog #11L794). The isolation medium was further supplemented with bovine serum albumin, protease inhibitor and L-glutathione reduced, with or without the cationic lipid-based Pro-Ject™ transfection reagent, and with or with the ZmWUS2-hexa histidine-tag protein treatments (ZmWUS2-hexa histidine-tag protein buffer as a control for comparison to the ZmWUS2-hexa histidine-tag protein). Each plate was sealed with parafilm and incubated at 28° C. under dark conditions. […] After 18 days, all cells were collected and rinsed using 70 μm Fisherbrand™ cell strainer and evaluated for the activation of cellular reprogramming and the induction of microspore embryogenesis. Microspore viability was scored by counting plasmolyzed, collapsed cells (i.e. “non-viable”) and translucent, spherical cells corresponding to the original state (i.e. “viable”).

[8] = 21 days, vs control EH microspores

With hemin the “expression of embryogenic transcripts” value [1] was “increased expression of embryogenic transcripts”, the “expression of pollen associated transcripts” value [1] was “decreased expression of pollen associated transcripts” and the “cellular proliferation and development of embryo-like structures (ELS)” value ([2]; 9% sucrose induction medium, 21 days, vs control) was “increased cellular proliferation and the development of embryo-like structures (ELS)”. For the same molecule, the “quality of the embryo-like structures (proportion of spherical vs non-spherical embryoids)” value ([2]; 21 days) was “improved the quality of the embryo-like structures”, the “number of ELS in responsive cultures” value ([2]; after 21 days of treatment (+/- hemin)) was “approximately doubled” and the “cellular proliferation in responsive cultures” value ([3]; 21 days of culture, vs control) was “increased cellular proliferation”. The “percentage of microspores scored with the ELS phenotype” value [3, 8] was “increased” and the “percentage of microspores scored with the MCS phenotype” value [3, 8] was “increased”.

B1: GAMMA ZEIN-ZmWUS2-hexa histidine-tag protein: Gamma-zein cell penetrating peptide WUSCHEL hexahistidine-tagged translational fusion protein (SEQ ID NO:47) (protein)
chain: VRLPPPVRLPPPLVRPPPLHHHHHHMAANAGGGGAGGGSGSGSVAAPAVCRPSGSRWTPTPEQIRMLKELYYGCGIRSPSSEQIQRITAMLRQHGKIEGKNVFYWFQNHKARERQKRRLTSLDVNVPAAGAADATTSQLGVLSLSSPPPSGAAPPSPTLGFYAAGNGGGSAVLLDTSSDWGSSGAAMATETCFLQDYMGVTDTGSSSQWPRFSSSDTIMAAAAARAATTRAPETLPLFPTCGDDGGSGSSSYLPFWGAASTTAGATSSVAIQQQHQLQEQYSFYSNSNSTQLAGTGNQDVSATAAAAAALELSLSSWCSPYPAAGSMGHHHHHH
modifications: WUS-HISTAG-GZCPP protein sequence
B1 was tested, and the “microspore responsiveness and embryogenesis induction” value [4] was “improved microspore responsiveness and embryogenesis induction”.

B2: ZmWUS2-hexa histidine-tag protein: Purified recombinant Zea mays WUSCHEL2 hexahistidine-tagged protein (SEQ ID NO:2) from baculovirus-infected SF9 insect cells (protein)
chain: MAANAGGGGAGGGSGSGSVAAPAVCRPSGSRWTPTPEQIRMLKELYYGCGIRSPSSEQIQRITAMLRQHGKIEGKNVFYWFQNHKARERQKRRLTSLDVNVPAAGAADATTSQLGVLSLSSPPPSGAAPPSPTLGFYAAGNGGGSAVLLDTSSDWGSSGAAMATETCFLQDYMGVTDTGSSSQWPRFSSSDTIMAAAAARAATTRAPETLPLFPTCGDDGGSGSSSYLPFWGAASTTAGATSSVAIQQQHQLQEQYSFYSNSNSTQLAGTGNQDVSATAAAAAALELSLSSWCSPYPAAGSMGHHHHHH
modifications: hexahistidine tag
B2 was tested, and the “microspore responsiveness and embryogenesis induction” value [5] was “improved microspore responsiveness and embryogenesis induction”, the “microspore responsiveness and embryogenesis induction” value ([6]; recalcitrant elite inbred, 4% sucrose induction media, vs culture without protein) was “improved microspore responsiveness and embryogenesis induction” and the “embryoid development (morphology)” value ([6]; wild type microspores treated with purified protein) was “revealed a suspensor with root hairs; also recorded: A microspore-derived embryo with a developed radicle and root hairs was observed”. For the same molecule, the “improvement in cell viability” value ([7]; 72 hours post-isolation, 4% sucrose liquid induction medium, on average) was 5.1 fold, the “cell proliferation / activation of cellular reprogramming and induction of microspore embryogenesis” value ([7]; combined with cationic lipid-based Pro-Ject transfection reagent, 18 days) was “cell proliferation was seen” and the “cell viability after 18 days of culture” value ([7]; without transfection reagent, vs control without protein) was “fewer cells were viable in the control treatment”.
